Reference: US20060116389A1, “Antibacterial oxazolidinones” (ASTRA ZENECA AB, priority 2002, published 2006)
≈ marks a conversion by molar mass, not a printed value.

What was measured:
Assay type in all cases: cell-based
Haemophilus influenzae = test: MIC, Mueller-Hinton broth supplemented with hemin and NAD; conditions: 24 hours, 37° C., 5×10^4 CFU/well
Procedure: (§1) The following results were obtained on a standard in-vitro test system. The activity is described in terms of the minimum inhibitory concentration (MIC) determined by the agar-dilution technique with an inoculum size of 10^4 CFU/spot. Typically, compounds are active in the range 0.01 to 256 μg/ml.
(§2) Streptococci and enterococci were tested on agar supplemented with 5% defibrinated horse blood, an inoculum of 10^4 CFU/spot and an incubation temperature of 37° C. in an atmosphere of 5% carbon dioxide for 48 hours—blood is required for the growth of some of the test organisms. Fastidious Gram negative organisms were tested in Mueller-Hinton broth, supplemented with hemin and NAD, grown aerobically for 24 hours at 37° C., and with an innoculum of 5×10^4 CFU/well.

Moraxella catarrhalis = test: as above; conditions: 24 hours, 37° C., 5×10^4 CFU/well
Procedure: as §1, §2

[1] = test system: Staphylococcus aureus MRQR (methicillin resistant and quinolone resistant); test: MIC, agar-dilution, standard in-vitro test system; conditions: 10^4 CFU/spot, 37° C., 24 hours
Procedure: as §1
(§3) Staphylococci were tested on agar, using an inoculum of 10^4 CFU/spot and an incubation temperature of 37° C. for 24 hours—standard test conditions for the expression of methicillin resistance.

[2] = test system: Staphylococcus aureus MSQS (methicillin sensitive and quinolone sensitive); test: MIC, agar-dilution, standard in-vitro test system; conditions: 10^4 CFU/spot, 37° C., 24 hours
Procedure: as §1, §3

Streptococcus pneumoniae = test: MIC, agar supplemented with 5% defibrinated horse blood; conditions: agar + 5% horse blood, 10^4 CFU/spot, 37° C., 5% carbon dioxide, 48 hours
Procedure: as §1, §2

[3] = test system: Linezolid Resistant Streptococcus pneumoniae; test: as above; conditions: agar + 5% horse blood, 48 hours
Procedure: as §1, §2

Enterococcus faecium = test: as above; conditions: agar + 5% horse blood, 10^4 CFU/spot, 37° C., 5% carbon dioxide, 48 hours
Procedure: as §1, §2

MIC (Haemophilus influenzae): 64 µg/mL (≈ 147 µM)
MIC (Moraxella catarrhalis): 0.5 µg/mL (≈ 1.15 µM)
MIC [1]: 0.5 µg/mL (≈ 1.15 µM)
MIC [2]: 0.5 µg/mL (≈ 1.15 µM)
MIC (Streptococcus pneumoniae): 0.13 µg/mL
MIC [3]: 2 µg/mL
MIC (Enterococcus faecium): 0.5 µg/mL
SMILES: Cn1nnc(-c2ccc(-c3ccc(N4C[C@H](CNc5ccon5)OC4=O)cc3F)cn2)n1 [Example 2]
